Columns and labels:
[1] = biological target: T1, PIM1 serine/threonine kinase (Homo sapiens, UniProt P11309); experiment: PIM1 serine/threonine kinase inhibitory effect; format: biochemical; conditions: PIM1 serine/threonine kinase activity; ATP 40 μM; 30° C., 30 minutes
T1 construct: purchased Carna Bioscience, Inc
Summary of the method: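 Recombinant PIM1 (0.15 μg/ml final) with 0.5 μM biotinylated substrate and 40 μM ATP in pH 7.0 HEPES/MgCl2 buffer, 30 min at 30° C. Compound range was 0.01–10000 nM final, n=2. HTRF detection with streptavidin-XL665 and anti-phospho antibody-cryptate, 1 h; IC50 from non-linear regression of the 665/620 ratio.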

[2] = system: graft-versus-host disease model CB6F1 mice; experiment: Lymphocyte proliferation inhibitory effect using graft-versus-host disease model animals (splenomegaly formation); format: in vivo; conditions: Mus musculus, 240 h, oral, twice a day for 10 days, GVHD model CB6F1 mice, read-out: Inhibition rate (%) (splenomegaly formation); for inhibition in vivo at 20 mg/kg: single dose 20 mg/kg
Description: BALB/c mice (8-week-aged female) were euthanized, and then the spleen was removed from each mouse. Then, hemolysis treatment was performed to isolate spleen cells. The obtained spleen cells were intravenously transplanted into CB6F1 mice (8-week-aged female), which are C57BL/6 and BALB/c F1 mice, to prepare a model, and splenomegaly was induced. For transplantation, spleen cells for 1.2 BALB/c mouse were used for one CB6F1 mouse.
Each test substance shown in Table 64 was weighed and dissolved in a 0.5% methyl cellulose solution, thereby preparing test substance solutions of 0.3 to 10 mg/mL.
A vehicle (0.5% methyl cellulose solution) or test substance was orally administered to each CB6F1 mouse after transplantation at a dose of 3 to 50 mg/kg in terms of body weight twice a day for 10 days from the day after transplantation. The mouse was euthanized on the 11th day from the start of administration, then the spleen was removed therefrom, and the wet weight of the spleen was measured. For each of CB6F1 mice that had not undergone transplantation as a control group, the wet weight of the spleen was also measured.
The splenomegaly formation inhibition rate when the spleen weights of the mice to which the vehicle was administered after transplantation and the mice on which transplantation had not been performed were 0% and 100%, respectively, was calculated.

[3] = biological target: T2, PIM2 serine/threonine kinase (Homo sapiens, UniProt Q9P1W9); experiment: PIM2 serine/threonine kinase inhibitory effect; format: biochemical; conditions: PIM2 serine/threonine kinase activity; ATP 2 μM; 30° C., 30 minutes
T2 construct: purchased Carna Bioscience, Inc
Description: (§1) Each test substance was prepared to 10 mM with dimethylsulfoxide (DMSO), and further diluted with DMSO so as to have concentrations of 1000, 300, 100, 30, 10, 3, 1, 0.3, 0.1, 0.03, 0.01, and 0.001 μM. Moreover, each dilution was further diluted 33.3-fold with an assay buffer to prepare a test substance solution. The composition of the assay buffer was 50 mM HEPES (pH 7.0), 0.02% NaN3, 0.01% Bovine Serum Albumin, 0.1 mM Orthovanadate, 1 mM Dithiothreitol, and 5 mM MgCl2.
(§2) 5 μL of each test substance solution was added to 384-well plates (n=2), and then 2.5 μL of a substrate solution (substrate 3-biotin (Cisbio Bioassays SAS), final concentration in the reaction solution: 0.5 μM) and 2.5 μL of an ATP solution (in the cases of PIM1, 2, 3, the final concentrations in the reaction solutions were 40, 2, and 10 μM, respectively) were added, 5 μL of each of PIM1, 2, 3 serine/threonine kinase solutions (Carna Bioscience, Inc., the final concentrations in the reaction solutions were 0.15, 1.6, and 0.25 μg/ml, respectively) was finally added, and the mixture was reacted at 30° C. for 30 minutes. The test substance concentrations in the reaction solutions are 10000, 3000, 1000, 300, 100, 30, 10, 3, 1, 0.3, 0.1, and 0.01 nM.
(§3) Thereafter, 15 μL of each detection solution (62.5 nM Streptavidin-XL665 (Cisbio Bioassays SAS), […] STK antibody-Cryptate (Cisbio Bioassays SAS), 50 mM HEPES (pH 7.0), 0.8 M KF, 0.1% Bovine Serum Albumin, 20 mM ethylenediaminetetraacetic acid) was added to each well. After stirring, the mixture was reacted at 30° C. for 1 hour. Absorbance (OD620, OD665) at 620 and 665 nm was measured with a microplate reader (SpectraMax M5e, Molecular Devices, LLC).
(§4) Non-linear regression analysis was performed by an SAS system (SAS Institute Inc.) using the ratio (OD665/OD620) of the measured absorbance to calculate a test substance concentration (IC50) that inhibits PIM1 serine/threonine kinase activity by 50%.
(§5) For the compounds with the following Example numbers, in addition to the above PIM1 serine/threonine kinase activity (IC50), test substance concentrations (IC50) that inhibit PIM2 serine/threonine kinase activity and PIM3 serine/threonine kinase activity by 50% were calculated.

[4] = biological target: T3, PIM3 serine/threonine kinase (Homo sapiens, UniProt Q86V86); experiment: PIM3 serine/threonine kinase inhibitory effect; format: biochemical; conditions: PIM3 serine/threonine kinase activity; ATP 10 μM; 30° C., 30 minutes
T3 construct: purchased Carna Bioscience, Inc
Description: as §1, §2, §3, §4, §5

T1 sequence (P11309 whole entry): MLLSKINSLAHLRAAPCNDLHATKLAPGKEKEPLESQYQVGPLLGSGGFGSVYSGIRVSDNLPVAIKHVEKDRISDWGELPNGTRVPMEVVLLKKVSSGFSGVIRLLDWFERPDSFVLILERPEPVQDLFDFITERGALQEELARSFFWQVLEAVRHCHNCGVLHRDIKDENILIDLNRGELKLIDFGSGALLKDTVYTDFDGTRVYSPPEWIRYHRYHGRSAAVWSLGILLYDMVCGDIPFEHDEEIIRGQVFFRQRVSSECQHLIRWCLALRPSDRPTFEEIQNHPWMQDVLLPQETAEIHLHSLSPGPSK
T2 sequence (Q9P1W9 whole entry): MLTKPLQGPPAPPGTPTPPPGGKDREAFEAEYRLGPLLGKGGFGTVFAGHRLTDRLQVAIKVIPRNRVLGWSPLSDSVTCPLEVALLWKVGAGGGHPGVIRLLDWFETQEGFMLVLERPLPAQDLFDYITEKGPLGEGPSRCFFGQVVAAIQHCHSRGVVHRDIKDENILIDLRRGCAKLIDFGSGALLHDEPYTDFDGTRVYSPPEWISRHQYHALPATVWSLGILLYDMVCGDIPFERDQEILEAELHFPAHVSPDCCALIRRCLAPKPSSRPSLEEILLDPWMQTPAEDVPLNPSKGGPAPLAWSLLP

Structure (SMILES)	IC50 [1] [nM]	inhibition in vivo at 10 mg/kg ([2]; single dose 10 mg/kg) [%]	inhibition in vivo at 20 mg/kg [2] [%]	IC50 [3] [nM]	IC50 [4] [nM]	inhibition in vivo at 6 mg/kg ([2]; single dose 6 mg/kg) [%]
C[C@H](Nc1cc(-c2n[nH]c(=O)o2)cc(F)c1OC(F)(F)F)C1CCNCC1.Cl [Example 202, 5-[3-fluoro-5-{[(1S)-1-(piperidin-4-yl)ethyl]amino}-4-(trifluoromethoxy)phenyl]-1,3,4-oxadiazol-2(3H)-one hydrochloride]	1.5	28.4	33.5	–	–	–
C[C@H](Nc1cc(-c2n[nH]c(=O)o2)cc(F)c1C(F)(F)F)C1CCNCC1.Cl [Example 75, 5-[3-fluoro-5-{[(1S)-1-(piperidin-4-yl)ethyl]amino}-4-(trifluoromethyl)phenyl]-1,3,4-oxadiazol-2(3H)-one hydrochloride]	1.4	–	27.1	2.3	10	21.7

— patent publication US20220024921A1, “1,3,4-OXADIAZOLONE COMPOUND AND PHARMACEUTICAL” (NIPPON SHINYAKU CO., LTD., priority 2018, published 2022)
